Measured values published in patent US4332794A, “6"-Deoxydibekacin, 4",6"-dideoxydibekacin and 1-N-aminoacyl derivatives thereof, and the production of these new compounds” (Zaidan Hojin Biseibutsu Kagaku Kenkyu Kai, priority 1979, dated 1982).
Read-outs that look alike come from different tables or passages of the source.

Assays:
Escherichia coli K-12 = test: MIC, serial dilution on nutrient agar; format: cell-based
Escherichia coli K-12 R5 = test: microbe, parasite or virus in culture; format: cell-based; conditions: K12R5, 18 h
[1] = test system: Escherichia coli JR66/W677; test: MIC, serial dilution on nutrient agar; format: cell-based; conditions: JR66/W677, 18 h
Proteus rettgeri GN311 = test: MIC, serial dilution on nutrient agar; format: cell-based; conditions: Providencia rettgeri
[2] = test system: Staphylococcus epidermidis 109; test: MIC, serial dilution on nutrient agar; format: cell-based
[3] = test system: Pseudomonas aeruginosa A3; test: MIC, serial dilution on nutrient agar; format: cell-based; conditions: A3, 18 h
Proteus rettgeri GN466 = test: MIC, serial dilution on nutrient agar; format: cell-based; conditions: Providencia rettgeri
[4] = test system: Escherichia coli K-12 LA 290 R55; test: microbe, parasite or virus in culture; format: cell-based; conditions: K12LA290R55, 18 h
intravenous LD50 in mice = conditions: mouse, in vivo, estimated
[5] = test system: Pseudomonas aeruginosa 99; test: MIC, serial dilution on nutrient agar; format: cell-based
[6] = test system: Staphylococcus aureus Smith; test: MIC, serial dilution on nutrient agar; format: cell-based; conditions: 37° C., 18 hours
Salmonella typhi F63 = test: MIC, serial dilution on nutrient agar; format: cell-based; conditions: Salmonella enterica, 18 h
[7] = test system: Escherichia coli K-12 1410 R81; test: MIC, serial dilution on nutrient agar; format: cell-based; conditions: K121410R81, 18 h
[8] = test system: Shigella dysenteriae JS11910; test: MIC, serial dilution on nutrient agar; format: cell-based; conditions: JS11910, 18 h
Escherichia coli JR255 = test: microbe, parasite or virus in culture; format: cell-based; conditions: JR255, 18 h
[9] = test system: Pseudomonas aeruginosa TI-13; test: MIC, serial dilution on nutrient agar; format: cell-based
[10] = test system: Escherichia coli K-12 ML 1630; test: MIC, serial dilution on nutrient agar; format: cell-based; conditions: K12ML1630, 37° C., 18 hours
Method: (§1) The minimum inhibitory concentrations (mcg/ml) of 6"-deoxydibekacin (abbreviated as 6"-DDKB), 4",6"-dideoxydibekacin (abbreviated as 4",6"-DDKB), 1-N-(L-4-amino-2-hydroxybutyryl)-6"-deoxydibekacin (abbreviated as AHB-6"-DDKB) and 1-N-(L-4-amino-2-hydroxybutyryl)-4",6"-dideoxydibekacin (abbreviated as AHB-4",6"-DDKB) of this invention against various microorganisms were determined according to serial dilution method on a nutrient agar medium at 37° C., the estimation being made after 18 hours incubation. For comparison purpose, the minimum inhibitory concentrations of dibekacin (abbreviated as DKB) were also determined in the same manner as stated above.

[11] = test system: Klebsiella pneumoniae PCI 602; test: MIC, serial dilution on nutrient agar; format: cell-based; conditions: PCI602, 37° C., 18 hours
Method: as §1

Proteus vulgaris OX19 = test: MIC, serial dilution on nutrient agar; format: cell-based; conditions: 37° C., 18 hours
Method: as §1

[12] = test system: Staphylococcus aureus 209P; test: MIC, serial dilution on nutrient agar; format: cell-based; conditions: 37° C., 18 hours
Method: as §1

Serratia marcescens = test: MIC, serial dilution on nutrient agar; format: cell-based; conditions: 37° C., 18 hours
Method: as §1

[13] = test system: Pseudomonas maltophilia GN907; test: MIC, serial dilution on nutrient agar; format: cell-based; conditions: Stenotrophomonas maltophilia, 37° C., 18 hours
Method: as §1

Providencia 2991 = test: MIC, serial dilution on nutrient agar; format: cell-based; conditions: 37° C., 18 hours
Method: as §1

[14] = test system: Escherichia coli K-12 ML 1629; test: MIC, serial dilution on nutrient agar; format: cell-based; conditions: K12ML1629, 37° C., 18 hours
Method: as §1

[15] = test system: Pseudomonas aeruginosa 21-75; test: MIC, serial dilution on nutrient agar; format: cell-based; conditions: 2175, 37° C., 18 hours
Method: as §1

[16] = test system: Staphylococcus aureus APO1; test: MIC, serial dilution on nutrient agar; format: cell-based
[17] = test system: Klebsiella pneumoniae 22 #3038; test: MIC, serial dilution on nutrient agar; format: cell-based; conditions: 18 h
[18] = test system: Escherichia coli K-12 LA 290 R56; test: microbe, parasite or virus in culture; format: cell-based; conditions: K12LA290R56, 18 h
Escherichia coli W677 = test: MIC, serial dilution on nutrient agar; format: cell-based
oto-toxicity = conditions: compounds of this invention
Escherichia coli NIHJ = test: MIC, serial dilution on nutrient agar; format: cell-based
[19] = test system: Escherichia coli K-12 ML 1410; test: MIC, serial dilution on nutrient agar; format: cell-based
Providencia Pv 16 = test: MIC, serial dilution on nutrient agar; format: cell-based
[20] = test system: Mycrococcus flavus FDA 16; test: MIC, serial dilution on nutrient agar; format: cell-based
[21] = test system: Pseudomonas aeruginosa No. 12; test: MIC, serial dilution on nutrient agar; format: cell-based
Bacillus anthracis = test: microbe, parasite or virus in culture; format: cell-based; conditions: 18 h
[22] = test system: Pseudomonas aeruginosa PST1; test: MIC, serial dilution on nutrient agar; format: cell-based
[23] = test system: Mycobacterium smegmatis ATCC 607; test: MIC, serial dilution on nutrient agar; format: cell-based; conditions: Mycolicibacterium smegmatis
[24] = test system: Escherichia coli K-12 LA 290 R64; test: MIC, serial dilution on nutrient agar; format: cell-based; conditions: K12LA290R64, 18 h
[25] = Staphylococcus epidermidis, 109, 18 h
[26] = Pseudomonas aeruginosa, 99, 18 h
[27] = NO.12, nutrient agar, 37° C., 18 hours, read-out: MIC
[28] = GN311, nutrient agar, 37° C., 18 hours, read-out: MIC
[29] = Pseudomonas aeruginosa, 99, nutrient agar, 37° C., 18 hours, read-out: MIC
[30] = TI13, nutrient agar, 37° C., 18 hours, read-out: MIC
[31] = nutrient agar, 37° C., 18 hours, read-out: MIC

C[C@@H]1C[C@H](N)[C@@H](O)[C@@H](O[C@@H]2[C@@H](O)[C@H](O[C@H]3O[C@H](CN)CC[C@H]3N)[C@@H](N)C[C@H]2N)O1 [4",6"-DDKB, 4",6"-dideoxydibekacin]
0.78 µg/mL: MIC (Salmonella typhi F63) | MIC [11] | MIC (Proteus vulgaris OX19) | MIC (Escherichia coli W677; W677, 18 h)
12.5 µg/mL: MIC [21, 27]
< 0.2 µg/mL: MIC [6] | MIC (Bacillus anthracis)
3.13 µg/mL: MIC (Proteus rettgeri GN311; GN311, 18 h) | MIC [2, 25] | MIC [3] | MIC [8] | MIC [10] | MIC [14] | MIC ([16]; APO1, 18 h)
50 µg/mL: MIC [18] | MIC ([20]; 18 h)
0.39 µg/mL: MIC [12]
> 60 mg/kg: LD50 (intravenous LD50 in mice)
1.56 µg/mL: MIC (Escherichia coli K-12; K12, 18 h) | MIC (Proteus rettgeri GN466; GN466, 18 h) | MIC [7] | MIC (Escherichia coli NIHJ; 18 h) | MIC ([19]; K12ML1410, 18 h) | MIC ([23]; ATCC607, 18 h)
> 100 µg/mL: MIC (Escherichia coli K-12 R5) | MIC [5, 26] | MIC [13] | MIC (Providencia 2991) | MIC [15] | MIC (Providencia Pv 16; PV16, 18 h) | MIC ([22]; PST1, 18 h)
100 µg/mL: MIC [1] | MIC [4] | MIC (Escherichia coli JR255) | MIC ([9]; TI13, 18 h) | MIC (Serratia marcescens) | MIC [17]
25 µg/mL: MIC [24]
low oto-toxicity: oto-toxicity (oto-toxicity)

C[C@H]1O[C@H](O[C@@H]2[C@@H](O)[C@H](O[C@H]3O[C@H](CN)CC[C@H]3N)[C@@H](N)C[C@H]2N)[C@H](O)[C@@H](N)[C@@H]1O [6"-DDKB, 6"-deoxydibekacin]
< 0.2 µg/mL: MIC [6]
3.13 µg/mL: MIC (Proteus rettgeri GN466; GN466, 18 h) | MIC [8] | MIC [10] | MIC ([16]; APO1, 18 h) | MIC ([19]; K12ML1410, 18 h)
12.5 µg/mL: MIC [5, 29] | MIC [9, 30]
0.78 µg/mL: MIC [12] | MIC ([23]; ATCC607, 18 h)
1.56 µg/mL: MIC (Escherichia coli K-12; K12, 18 h) | MIC [2, 25] | MIC [3] | MIC [7] | MIC [11] | MIC [14] | MIC (Escherichia coli W677; W677, 18 h) | MIC (Escherichia coli NIHJ; 18 h)
0.39 µg/mL: MIC (Salmonella typhi F63) | MIC (Proteus vulgaris OX19) | MIC (Bacillus anthracis)
> 100 µg/mL: MIC [4] | MIC (Escherichia coli JR255) | MIC [13] | MIC (Providencia 2991) | MIC [15] | MIC (Providencia Pv 16; PV16, 18 h) | MIC ([22]; PST1, 18 h)
25 µg/mL: MIC [18] | MIC [20, 31] | MIC [24]
100 µg/mL: MIC (Escherichia coli K-12 R5) | MIC [1] | MIC (Serratia marcescens) | MIC [17]
> 60 mg/kg: LD50 (intravenous LD50 in mice)
low oto-toxicity: oto-toxicity (oto-toxicity)
6.25 µg/mL: MIC (Proteus rettgeri GN311; [28]) | MIC [21, 27]

C[C@@H]1C[C@H](N)[C@@H](O)[C@@H](O[C@@H]2[C@@H](O)[C@H](O[C@H]3O[C@H](CN)CC[C@H]3N)[C@@H](N)C[C@H]2NC(=O)[C@@H](O)CCN)O1 [AHB-4",6"-DDKB, 1-N-(L-4-amino-2-hydroxybutyryl)-4",6"-dideoxydibekacin]
100 µg/mL: MIC (Escherichia coli K-12 R5) | MIC (Serratia marcescens) | MIC (Providencia 2991)
1.56 µg/mL: MIC (Escherichia coli K-12; K12, 18 h) | MIC [2, 25] | MIC [3] | MIC [4] | MIC [7] | MIC (Escherichia coli JR255) | MIC [10] | MIC [14] | MIC ([16]; APO1, 18 h) | MIC [18] | MIC (Escherichia coli W677; W677, 18 h) | MIC (Escherichia coli NIHJ; 18 h) | MIC ([19]; K12ML1410, 18 h) | MIC ([20]; 18 h)
12.5 µg/mL: MIC [5, 29] | MIC [21, 27]
low oto-toxicity: oto-toxicity (oto-toxicity)
0.78 µg/mL: MIC [11] | MIC [12] | MIC [24]
3.13 µg/mL: MIC [1] | MIC (Proteus rettgeri GN466; GN466, 18 h) | MIC [8] | MIC [17]
> 80 mg/kg: LD50 (intravenous LD50 in mice)
25 µg/mL: MIC (Proteus rettgeri GN311; [28]) | MIC [9, 30] | MIC (Providencia Pv 16; PV16, nutrient agar, 37° C., 18 hours, read-out: MIC) | MIC ([22]; PST1, nutrient agar, 37° C., 18 hours, read-out: MIC)
> 100 µg/mL: MIC [13] | MIC [15]
< 0.2 µg/mL: MIC [6] | MIC (Bacillus anthracis)
0.39 µg/mL: MIC (Salmonella typhi F63) | MIC (Proteus vulgaris OX19) | MIC ([23]; ATCC607, 18 h)

NC[C@@H]1CC[C@@H](N)[C@@H](O[C@H]2[C@H](O)[C@@H](O[C@H]3O[C@H](CO)[C@@H](O)[C@H](N)[C@H]3O)[C@H](N)C[C@@H]2N)O1 [DKB, 3',4'-dideoxykanamycin B, reference compound]
< 0.2 µg/mL: MIC [6] | MIC (Bacillus anthracis)
0.78 µg/mL: MIC (Salmonella typhi F63) | MIC [11] | MIC (Proteus vulgaris OX19) | MIC [12]
6.25 µg/mL: MIC (Proteus rettgeri GN311; GN311, 18 h) | MIC ([9]; TI13, 18 h) | MIC ([21]; NO.12, 18 h)
100 µg/mL: MIC [1] | MIC [4] | MIC (Serratia marcescens) | MIC [17] | MIC ([20]; 18 h)
25 µg/mL: MIC [18] | MIC [24]
> 100 µg/mL: MIC (Escherichia coli K-12 R5) | MIC (Escherichia coli JR255) | MIC [13] | MIC (Providencia 2991) | MIC [15] | MIC (Providencia Pv 16; PV16, 18 h) | MIC ([22]; PST1, 18 h)
1.56 µg/mL: MIC (Escherichia coli K-12; K12, nutrient agar, 37° C., 18 hours, read-out: MIC) | MIC ([2]; Staphylococcus epidermidis, 109, nutrient agar, 37° C., 18 hours, read-out: MIC) | MIC (Proteus rettgeri GN466; GN466, nutrient agar, 37° C., 18 hours, read-out: MIC) | MIC [7] | MIC ([16]; APO1, nutrient agar, 37° C., 18 hours, read-out: MIC) | MIC (Escherichia coli W677; W677, nutrient agar, 37° C., 18 hours, read-out: MIC) | MIC (Escherichia coli NIHJ; [31]) | MIC ([19]; K12ML1410, nutrient agar, 37° C., 18 hours, read-out: MIC) | MIC ([23]; ATCC607, nutrient agar, 37° C., 18 hours, read-out: MIC)
3.13 µg/mL: MIC [3] | MIC [8] | MIC [10] | MIC [14]
50 µg/mL: MIC [5, 26]
